Data taken from patent publication US9944645B2, “Imidazotriazines and imidazopyrimidines as kinase inhibitors” (Incyte Holdings Corporation, priority 2006, dated 2018).

Target: c-Met kinase (h-Met; histidine-tagged c-Met catalytic domain fusion protein) (Homo sapiens (Human), UniProt P08581)
Assay: In Vitro c-Met Kinase Enzyme Assays
Type: biochemical
Settings: phosphorylation of poly Glu-Tyr, 5 μM ATP, 25 minutes at 30° C.
Protocol: Compounds were screened in vitro for their ability to inhibit c-Met kinase activity. […] Briefly, histidine-tagged c-Met catalytic domain fusion protein (Invitrogen, #PV3143) was used for the assay. […] The reaction lasted for 25 minutes at 30° C. After the reaction was completed, the contents of the plates was discarded. Plates were then washed with TBS-T (250 μL/well, 5×) and then blocked with TBS-T containing 1% BSA for 2 hours. The contents of the plates was discarded, and 100 μL (per well) of peroxidase-labeled anti-phospho-tyrosine antibody (Sigma, #A5964) diluted (1:60,000) in 1% BSA containing TBS-T were then added and incubated for 1 hour. Plates were washed with TBS-T ([…], 5×) and followed by the color reaction using 100 μL (1:1 mixture) of H2O2 and tetramethylbenzidine (R&D Systems, #DY999). The reaction was stopped in minutes with 100 μL of 2 N H2SO4. The optical density was measured immediately using a microplate reader at 450 nm with wavelength correction at 540 nm. IC50 values were calculated with the GraphPad Prism software. The linear range (i.e., the time period over which the rate remained equivalent to the initial rate) was determined for the kinase and IC50 determinations were performed within this range.

Chain of c-Met kinase (h-Met; histidine-tagged c-Met catalytic domain fusion protein) (P08581 1078-1345): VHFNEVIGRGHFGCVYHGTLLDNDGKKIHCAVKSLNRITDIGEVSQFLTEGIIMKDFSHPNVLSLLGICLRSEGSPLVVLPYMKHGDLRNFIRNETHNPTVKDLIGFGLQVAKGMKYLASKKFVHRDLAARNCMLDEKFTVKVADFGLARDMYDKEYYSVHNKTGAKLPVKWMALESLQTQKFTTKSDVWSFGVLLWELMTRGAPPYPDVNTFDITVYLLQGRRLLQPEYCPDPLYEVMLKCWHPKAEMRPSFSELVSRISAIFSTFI

SMILES | IC50 [µM]
COC1CCN(C(=O)C(C)NC(=O)c2ccc(-c3cnc4ncc(C5(c6ccc7ncccc7c6)CC5)n4c3)cc2F)C1 (single isomer, unassigned) [Example 201] | < 0.5
N#CC1CCN(C(=O)c2ccc(-c3cnc4ncc(C5(c6ccc7ncccc7c6)CC5)n4c3)cc2)C1 (stereo in doubt) [Example 52, (3R)-1-{4-[3-(1-Quinolin-6-ylcyclopropyl)imidazo[1,2-a]pyrimidin-6-yl]benzoyl}pyrrolidine-3-carbonitrile] | < 0.5
COc1ccc(Cc2cnc3ncc(-c4ccc(F)cc4)nn23)cc1 [Example 1] | < 0.5
COc1ccc(C2(c3cnc4ncc(-c5ccc(F)cc5)nn34)CC2)cc1 [Example 2, 2-(4-Fluorophenyl)-7-[1-(4-methoxyphenyl)cyclopropyl]imidazo[1,2-b]-[1,2,4]-triazine] | < 0.5
Fc1ccc(-c2cnc3ncc(C4(c5ccc6ncccc6c5)CC4)n3n2)cc1 [Example 3, 6-(1-(2-(4-Fluorophenyl)imidazo[1,2-b][1,2,4]-triazin-7-yl)cyclopropyl)quinoline] | < 0.5
COc1ccc(Cc2cnc3ncc(-c4ccc(F)cc4)cn23)cc1 [Example 4, 6-(4-Fluorophenyl)-3-(4-methoxybenzyl)imidazo[1,2-a]pyrimidine] | < 0.5
COc1ccc(C2(c3cnc4ncc(-c5ccc(F)cc5)cn34)CC2)cc1 [Example 5, 6-(4-Fluorophenyl)-3-(1-(4-methoxyphenyl)cyclopropyl)imidazo[1,2-a]pyrimidine] | < 0.5
Fc1ccc(-c2cnc3ncc(C4(c5ccc6ncccc6c5)CC4)n3c2)cc1 [Example 6, 6-(1-(6-(4-Fluorophenyl)imidazo[1,2-a]pyrimidin-3-yl)cyclopropyl)quinoline] | < 0.5
COc1ccc(Sc2cnc3ncc(-c4ccc(Br)c(F)c4)nn23)cc1 [Example 8, 2-(4-Bromo-3-fluorophenyl)-7-[(4-methoxyphenyl)thio]imidazo[1,2-b][1,2,4]triazine] | < 0.5
CNC(=O)c1ccc(-c2cnc3ncc(Sc4ccc(OC)cc4)n3c2)cc1F [Example 9, 2-Fluoro-4-(3-[(4-methoxyphenyl)thio]imidazo[1,2-a]pyrimidin-6-yl)-N-methylbenzamide] | < 0.5
CNC(=O)c1ccc(-c2cnc3ncc(Sc4ccc(OC)cc4)n3c2)cc1Cl [Example 10, 2-chloro-4-3-[(4-methoxyphenyl)thio]imidazo[1,2-a]pyrimidin-6-yl-N-methylbenzamide] | < 0.5
CNC(=O)c1ccc(-c2cnc3ncc(Sc4ccc5ncccc5c4)n3c2)cc1F [Example 11, 2-Fluoro-N-methyl-4-[3-(quinolin-6-ylthio)imidazo[1,2-a]pyrimidin-6-yl]benzamide] | < 0.5
CNC(=O)c1ccc(-c2cnc3ncc(Sc4ccc5ncccc5c4)n3c2)cc1Cl [Example 12, 2-chloro-N-methyl-4-[3-(quinolin-6-ylthio)imidazo[1,2-a]pyrimidin-6-yl]benzamide] | < 0.5
COC(=O)c1ccc(-c2cnc3ncc(Sc4ccc5ncccc5c4)n3n2)cc1F [Example 13, Methyl 2-fluoro-4-[7-(quinolin-6-ylthio)imidazo[1,2-b][1,2,3]triazin-2-yl]benzoate] | < 0.5
COc1ccc(Oc2cnc3ncc(-c4ccc(Br)c(F)c4)nn23)cc1 [Example 14, 2-(4-Bromo-3-fluorophenyl)-7-(4-methoxyphenoxy)imidazo[1,2-b][1,2,4]triazine] | < 0.5
COc1ccc(Oc2cnc3ncc(-n4cc(C)cn4)cn23)cc1 [Example 15, 3-(4-Methoxyphenoxy)-6-(4-methyl-1H-pyrazol-1-yl)imidazo[1,2-a]pyrimidine] | < 0.5
COc1ccc(Oc2cnc3ncc(-c4ccc(Br)cc4)cn23)cc1 [Example 16, 6-(4-Bromophenyl)-3-(4-methoxyphenoxy)imidazo[1,2-a]pyrimidine] | < 3
CNC(=O)c1ccc(-c2cnc3ncc(Oc4ccc5ncccc5c4)n3c2)cc1Cl [Example 17, 2-chloro-N-methyl-4-[3-(quinolin-6-yloxy)imidazo[1,2-a]pyrimidin-6-yl]benzamide] | < 0.5
CNC(=O)c1ccc(-c2cnc3ncc(C4(c5ccc6ncccc6c5)CC4)n3c2)cc1F [Example 18, 2-Fluoro-N-methyl-4-[3-(1-quinolin-6-ylcyclopropyl)imidazo[1,2-a]pyrimidin-6-yl]benzamide] | < 0.5
COc1ccc(Sc2cnc3ncc(-c4ccc(Br)cc4)cn23)cc1 [Example 19, 6-(4-bromophenyl)-3-[(4-methoxyphenyl)thio]imidazo[1,2-a]pyrimidine] | < 0.5
COc1ccc(Sc2cnc3ncc(-c4ccc(F)cc4)nn23)cc1 [Example 20, 2-(4-fluorophenyl)-7-[(4-methoxyphenyl)thio]imidazo[1,2-b][1,2,4]triazine] | < 0.5
CC(Oc1ccc(-c2cnc3ncc(C4(c5ccc6ncccc6c5)CC4)n3c2)cc1F)C(=O)N1CCCC1 (stereo not drawn) [Example 21, 6-(1-{6-[3-Fluoro-4-(1-methyl-2-oxo-2-pyrrolidin-1-ylethoxy)phenyl]imidazo[1,2-a]pyrimidin-3-yl}cyclopropyl)quinoline] | < 0.5
c1cnc2ccc(C3(c4cnc5ncc(-n6cccn6)cn45)CC3)cc2c1 [Example 22, 6-{1-[6-(1H-Pyrazol-1-yl)imidazo[1,2-a]pyrimidin-3-yl]cyclopropyl}quinoline] | < 0.5
Cc1cnn(-c2cnc3ncc(C4(c5ccc6ncccc6c5)CC4)n3c2)c1 [Example 23, 6-{1-[6-(4-Methyl-1H-pyrazol-1-yl)imidazo[1,2-a]pyrimidin-3-yl]cyclopropyl}quinoline] | < 0.5
CN(C)C(=O)c1cnn(-c2cnc3ncc(C4(c5ccc6ncccc6c5)CC4)n3c2)c1 [Example 24, N,N-Dimethyl-1-[3-(1-quinolin-6-ylcyclopropyl)imidazo[1,2-a]pyrimidin-6-yl]-1H-pyrazole-4-carboxamide] | < 0.5
Cc1csc(C(C)NC(=O)c2cnn(-c3cnc4ncc(C5(c6ccc7ncccc7c6)CC5)n4c3)c2)n1 (stereo not drawn) [Example 25, N-[1-(4-Methyl-1,3-thiazol-2-yl)ethyl]-1-[3-(1-quinolin-6-ylcyclopropyl)imidazo[1,2-a]pyrimidin-6-yl]-1H-pyrazole-4-carboxamide] | < 0.5
O=C(NC1CCCCC1)c1cnc2ncc(C3(c4ccc5ncccc5c4)CC3)n2c1 [Example 26, N-Cyclohexyl-3-(1-quinolin-6-ylcyclopropyl)imidazo[1,2-a]pyrimidine-6-carboxamide] | < 0.5
O=C(NCC1CCCO1)c1cnc2ncc(C3(c4ccc5ncccc5c4)CC3)n2c1 (stereo not drawn) [Example 27, 3-(1-Quinolin-6-ylcyclopropyl)-N-(tetrahydrofuran-2-ylmethyl)imidazo[1,2-a]pyrimidine-6-carboxamide] | < 0.5
O=C(NC1CCC1)c1ccc(-c2cnc3ncc(C4(c5ccc6ncccc6c5)CC4)n3c2)cc1 [Example 28, N-Cyclobutyl-4-[3-(1-quinolin-6-ylcyclopropyl)imidazo[1,2-a]pyrimidin-6-yl]benzamide] | < 0.5
O=C(c1ccc(-c2cnc3ncc(C4(c5ccc6ncccc6c5)CC4)n3c2)cc1)N1CCC1 [Example 29, 6-(1-{6-[4-(Azetidin-1-ylcarbonyl)phenyl]imidazo[1,2-a]pyrimidin-3-yl}cyclopropyl)quinoline] | < 0.5
